From PubChem BioAssay AID248 (DTP/NCI, 2004)
Where “and” joins values, the source holds several entries; their conditions need not be identical. Identical values can stand only once. Inconclusive results and toxic doses are left out. Rule as the data show it: active = T/C of 150% or more; inactive = T/C below 125%. Square brackets hold non-standard residues; d marks the D form. Peptide text beside a SMILES is read from it. * marks the point of attachment. ξ: configuration not given here. Cbz = O=C(OCc1ccccc1)*; OBn = c1ccc(CO*)cc1; ξS = NC(CO)C(=O)O

Tested on: L1210 leukemia ip in BDF1 mice, survival T/C
Assay: NCI In Vivo Anticancer Drug Screen. Data for tumor model L1210 Leukemia (intraperitoneal) in B6D2F1 (BDF1) mice
Details: endpoint: mean survival time, higher = longer survival
Outline: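 Read-out is survival time, reported as the treated-group measurement over the vehicle-control measurement.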

[1] = dose: 100.0 mg/kg/injection, schedule: Q01DX001 (ip), vehicle: carboxymethylcellulose (CMC)
[2] = dose: 100.0 mg/kg/injection, schedule: Q04DX003 (ip), vehicle: Klucel (hydroxypropylcellulose) (HPC)
[3] = dose: 200.0 mg/kg/injection, schedule: Q04DX003 (ip), vehicle: Klucel (hydroxypropylcellulose) (HPC)
[4] = dose: 100.0 mg/kg/injection, schedule: Q01DX001 (ip), vehicle: saline
[5] = dose: 200.0 mg/kg/injection, schedule: Q01DX001 (ip), vehicle: saline

Measured: T/C

N#CCC1CC=CCC1 (stereo not drawn)
inactive: [1] 98 % of control | dose: 200.0 mg/kg/injection, schedule: Q01DX001 (ip), vehicle: carboxymethylcellulose (CMC) 98 % of control | dose: 400.0 mg/kg/injection, schedule: Q01DX001 (ip), vehicle: carboxymethylcellulose (CMC) 104 % of control

CC(C)CC(N)C(=O)NC1(C(=O)O)C2CC3CC(C2)CC1C3 (stereo not drawn)
inactive: dose: 17.5 mg/kg/injection, schedule: Q01DX009 (ip), vehicle: Klucel (hydroxypropylcellulose) (HPC) 101 % of control | dose: 35.0 mg/kg/injection, schedule: Q01DX009 (ip), vehicle: Klucel (hydroxypropylcellulose) (HPC) 96 % of control | dose: 70.0 mg/kg/injection, schedule: Q01DX009 (ip), vehicle: Klucel (hydroxypropylcellulose) (HPC) 97 % of control | dose: 75.0 mg/kg/injection, schedule: Q01DX009 (ip), vehicle: Klucel (hydroxypropylcellulose) (HPC) 103 % of control | dose: 150.0 mg/kg/injection, schedule: Q01DX009 (ip), vehicle: Klucel (hydroxypropylcellulose) (HPC) 97 % of control | dose: 300.0 mg/kg/injection, schedule: Q01DX009 (ip), vehicle: Klucel (hydroxypropylcellulose) (HPC) 92 % of control

CSc1nccc(=O)[nH]1
inactive: dose: 50.0 mg/kg/injection, schedule: Q01DX009 (ip), vehicle: Klucel (hydroxypropylcellulose) (HPC) 100 % of control | dose: 100.0 mg/kg/injection, schedule: Q01DX009 (ip), vehicle: Klucel (hydroxypropylcellulose) (HPC) 95 % of control | [2] 102 % of control | [3] 96 % of control

COCCOC(=O)c1ccc(C(=N)N)cc1
inactive: [4] 106 % of control | [5] 100 % of control

CCOC(=O)N1Cc2cc3cc4c(cc3nc2C1)OCO4
inactive: dose: 100.0 mg/kg/injection, schedule: Q04DX003 (ip), vehicle: saline 94 % of control | dose: 200.0 mg/kg/injection, schedule: Q04DX003 (ip), vehicle: saline 94 % of control | dose: 400.0 mg/kg/injection, schedule: Q04DX003 (ip), vehicle: saline 96 % of control

CC(=O)Oc1cccc(/C=C2/N=C(C)OC2=O)c1
inactive: dose: 25.0 mg/kg/injection, schedule: Q04DX003 (ip), vehicle: Klucel (hydroxypropylcellulose) (HPC) 108 % of control | dose: 50.0 mg/kg/injection, schedule: Q04DX003 (ip), vehicle: Klucel (hydroxypropylcellulose) (HPC) 105 % of control | [4] 92 % of control | [2] 97 % of control | [5] 92 % of control | dose: 400.0 mg/kg/injection, schedule: Q01DX001 (ip), vehicle: saline 90 % of control

O=C(CNC(=O)OCc1ccccc1)NC(CO)C(=O)OCc1ccccc1 (stereo not drawn) (Cbz-Gly-[ξS]-OBn)
inactive: [2] 101 % of control | [3] 101 % of control | dose: 400.0 mg/kg/injection, schedule: Q04DX003 (ip), vehicle: Klucel (hydroxypropylcellulose) (HPC) 105 % of control

CC(=O)NNC(=O)Nc1cccc(C(F)(F)F)c1
inactive: dose: 50.0 mg/kg/injection, schedule: Q01DX009 (ip), vehicle: saline with Tween-80 94 % of control | dose: 100.0 mg/kg/injection, schedule: Q01DX009 (ip), vehicle: saline with Tween-80 91 % of control

CCCCCCCCCCCCCCCC[n+]1ccc(C#N)cc1
inactive: dose: 1.25 mg/kg/injection, schedule: Q01DX009 (ip), vehicle: saline 89 % of control | dose: 2.5 mg/kg/injection, schedule: Q01DX009 (ip), vehicle: saline 97 % of control | dose: 2.5 mg/kg/injection, schedule: Q04DX003 (ip), vehicle: saline 97 % of control | dose: 5.0 mg/kg/injection, schedule: Q01DX009 (ip), vehicle: saline 94 % of control | dose: 5.0 mg/kg/injection, schedule: Q04DX003 (ip), vehicle: saline 101 % of control | dose: 10.0 mg/kg/injection, schedule: Q01DX001 (ip), vehicle: saline 90 % of control | dose: 10.0 mg/kg/injection, schedule: Q04DX003 (ip), vehicle: saline 94 % of control

CCOC(=O)c1ccc2c(ccc3ccccc32)n1
inactive: dose: 25.0 mg/kg/injection, schedule: Q01DX001 (ip), vehicle: carboxymethylcellulose (CMC) 97 % of control | dose: 25.0 mg/kg/injection, schedule: Q01DX009 (ip), vehicle: carboxymethylcellulose (CMC) 98 % of control and 102 % of control | dose: 25.0 mg/kg/injection, schedule: Q04DX002 (ip), vehicle: carboxymethylcellulose (CMC) 93 % of control and 104 % of control | dose: 25.0 mg/kg/injection, schedule: Q04DX003 (ip), vehicle: carboxymethylcellulose (CMC) 108 % of control | dose: 50.0 mg/kg/injection, schedule: Q01DX001 (ip), vehicle: carboxymethylcellulose (CMC) 102 % of control | dose: 50.0 mg/kg/injection, schedule: Q01DX009 (ip), vehicle: carboxymethylcellulose (CMC) 94 % of control and 98 % of control | dose: 50.0 mg/kg/injection, schedule: Q04DX002 (ip), vehicle: carboxymethylcellulose (CMC) 97 % of control | dose: 50.0 mg/kg/injection, schedule: Q04DX003 (ip), vehicle: carboxymethylcellulose (CMC) 102 % of control | [1] 94 % of control | dose: 100.0 mg/kg/injection, schedule: Q01DX009 (ip), vehicle: carboxymethylcellulose (CMC) 100 % of control | dose: 100.0 mg/kg/injection, schedule: Q04DX002 (ip), vehicle: carboxymethylcellulose (CMC) 93 % of control and 101 % of control | dose: 100.0 mg/kg/injection, schedule: Q04DX003 (ip), vehicle: carboxymethylcellulose (CMC) 105 % of control
